Values of other authors in US20170202917A1, “PHARMACEUTICAL COMPOSITION FOR PREVENTING OR TREATING SKIN RASH” (DAEWOONG PHARMACEUTICAL CO., LTD., priority 2014, published 2017).

Columns and labels:
[1] = test system: skin rashes; conditions: prophylactic treatment

SMILES	overall incidence of erlotinib-related skin effects (ERSEs) (NSCLC and PC clinical trials) [%]	incidence of grade 3-4 ERSEs (NSCLC and PC clinical trials, of the patients)	time to development of rash after starting treatment (rash above the waist) [days]	improvement in skin rashes compared with placebo [1] [%]
C#Cc1cccc(Nc2ncnc3cc(OCCOC)c(OCCOC)cc23)c1 [erlotinib]	75	about 10%	7 to 10	
CN(C)[C@@H]1C(O)=C(C(N)=O)C(=O)[C@@]2(O)C(O)=C3C(=O)c4c(O)cccc4[C@@](C)(O)[C@H]3C[C@@H]12 [tetracycline]				30
